Values quoted from earlier work in patent publication US10993934B2, “Topical compositions of dutasteride” (SHILPA MEDICARE LIMITED, priority 2017, dated 2021).

Experiments:
[1] = orally administered

- Solubility in ethanol (ethanol): soluble
- Solubility in methanol (methanol): soluble
- Solubility in polyethylene glycol 400 (polyethylene glycol 400): soluble
- Solubility in water (water): insoluble
- Absolute bioavailability [1]: about 60%
- Absolute bioavailability (range) ([1]; range in brackets): 40%-94%
Compound: C[C@]12C=CC(=O)N[C@@H]1CC[C@@H]1[C@@H]2CC[C@]2(C)[C@@H](C(=O)Nc3cc(C(F)(F)F)ccc3C(F)(F)F)CC[C@@H]12 [Dutasteride, (5α,17β)-N-{2,5-bis(trifluoromethyl)phenyl}-3-oxo-4-azaandrost-1-ene-17-carboxamide]
